Experimental data as given in the supplement of paper PMC6045584.
± gives the standard deviation of the averaged measurements.

Experiments:
[1] = compound: CC[C@@]1(O)C(=O)OCc2c1cc1n(c2=O)Cc2cc3ccccc3nc2-1 [CAMPTOTHECIN]; assay: surviving fraction relative to DMSO-only wells; higher = less growth inhibition; details: exposure time: 5 days
Outline: (§1)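 Log-phase tumour cell lines were seeded at 250–500 cells per well in 384-well plates. After 24 hours they were exposed continuously for five days to inhibitors at 0.5, 1, 5, 10, 50, 100, 500 and 1000 nM. Viability was read by CellTiter-Glo luminescence after 10 minutes at room temperature, and surviving fraction is luminescence normalised to the median of DMSO-only wells. Each line was screened three times and kept only if replicate Pearson r >0.7 and median Z' >0.3.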

[2] = compound: COCC[n+]1c2c(n(Cc3cnccn3)c1C)C(=O)c1ccccc1C2=O [YM155]; assay: as above; details: exposure time: 5 days
Outline: as §1

Test System | surviving fraction ([1]; 0.5 nM) | surviving fraction ([1]; 1 nM) | surviving fraction ([1]; 5 nM) | surviving fraction ([1]; 10 nM) | surviving fraction ([1]; 50 nM) | surviving fraction ([1]; 100 nM) | surviving fraction ([1]; 500 nM) | surviving fraction ([1]; 1000 nM) | surviving fraction ([2]; 0.5 nM) | surviving fraction ([2]; 1 nM) | surviving fraction ([2]; 5 nM) | surviving fraction ([2]; 10 nM) | surviving fraction ([2]; 50 nM) | surviving fraction ([2]; 100 nM) | surviving fraction ([2]; 500 nM) | surviving fraction ([2]; 1000 nM)
HCC78 LUNG | 0.33 ± 0.059 | 0.597 ± 0.15 | 0.0267 ± 0.0057 | 0.0123 ± 0.0031 | 0.0137 ± 0.0031 | 0.0147 ± 0.0023 | 0.013 ± 0.0027 | 0.016 ± 0.0027 | 0.7 ± 0.12 | 0.701 ± 0.23 | 0.457 ± 0.059 | 0.269 ± 0.062 | 0.0407 ± 0.0029 | 0.0247 ± 0.004 | 0.016 | 0.0187 ± 0.0025
HCC1395 BREAST | 0.71 ± 0.18 | 0.909 ± 0.071 | 0.788 ± 0.064 | 0.732 ± 0.044 | 0.627 ± 0.029 | 0.57 ± 0.086 | 0.421 ± 0.049 | 0.344 ± 0.09 | 0.883 ± 0.23 | 1.07 ± 0.031 | 1.15 ± 0.035 | 1.01 ± 0.056 | 0.733 ± 0.11 | 0.427 ± 0.12 | 0.278 ± 0.079 | 0.239 ± 0.065
HCC1806 BREAST | 0.717 ± 0.092 | 0.661 ± 0.046 | 0.269 ± 0.054 | 0.128 ± 0.015 | 0.074 ± 0.0056 | 0.044 ± 0.0017 | 0.0193 ± 0.00058 | 0.0223 ± 0.00058 | 1.04 ± 0.077 | 1.08 ± 0.15 | 0.308 ± 0.016 | 0.284 ± 0.01 | 0.064 ± 0.0027 | 0.05 ± 0.0044 | 0.024 | 0.0257 ± 0.0015
HCC1954 BREAST | 0.381 ± 0.037 | 0.362 ± 0.0088 | 0.484 ± 0.033 | 0.517 ± 0.037 | 0.245 ± 0.046 | 0.172 ± 0.011 | 0.0478 ± 0.0088 | 0.0365 ± 0.0021 | 1.08 ± 0.077 | 0.922 ± 0.12 | 0.987 ± 0.051 | 0.467 ± 0.079 | 0.0892 ± 0.02 | 0.035 ± 0.0064 | 0.0335 ± 0.00071 | 0.0333 ± 0.0053
HCT15 LARGE INTESTINE | 0.33 ± 0.031 | 0.779 ± 0.041 | 0.232 ± 0.083 | 0.0333 ± 0.0047 | 0.0227 ± 0.0038 | 0.0337 ± 0.0038 | 0.0207 ± 0.0021 | 0.0277 ± 0.0038 | 0.916 ± 0.056 | 1.01 ± 0.051 | 0.975 ± 0.017 | 0.974 ± 0.029 | 0.467 ± 0.028 | 0.185 ± 0.029 | 0.061 ± 0.0027 | 0.0557 ± 0.0031
HELA CERVIX | 0.934 ± 0.062 | 0.937 ± 0.044 | 0.967 ± 0.04 | 1.06 ± 0.014 | 0.253 ± 0.019 | 0.373 ± 0.02 | 0.0667 ± 0.0072 | 0.0348 ± 0.0013 | 0.9905 ± 0.0069 | 0.966 ± 0.06 | 0.487 ± 0.0092 | 0.23 ± 0.0095 | 0.0242 ± 0.00076 | 0.021 ± 0.0013 | 0.0187 ± 0.00058 | 0.0228 ± 0.00076
HMLE3 BREAST | 0.304 ± 0.027 | 0.85433 ± 0.00058 | 0.485 ± 0.027 | 0.3 ± 0.0056 | 0.127 ± 0.026 | 0.0547 ± 0.0029 | 0.0203 ± 0.0015 | 0.0213 ± 0.00058 | 0.974 ± 0.062 | 1.06 ± 0.15 | 0.425 ± 0.072 | 0.129 ± 0.02 | 0.0257 ± 0.00058 | 0.0227 ± 0.00058 | 0.018 ± 0.001 | 0.0213 ± 0.00058
HMT3552 BREAST | 0.955 ± 0.056 | 0.944 ± 0.087 | 0.782 ± 0.031 | 0.422 ± 0.0095 | 0.224 ± 0.0076 | 0.215 ± 0.0061 | 0.0953 ± 0.005 | 0.0647 ± 0.0081 | 0.983 ± 0.045 | 1.015 ± 0.009 | 1.06 ± 0.015 | 1.05 ± 0.056 | 0.17 ± 0.027 | 0.0797 ± 0.0055 | 0.0473 ± 0.0035 | 0.0537 ± 0.00058
HOSMNG BONE | 0.889 ± 0.11 | 0.973 ± 0.035 | 0.863 ± 0.1 | 0.875 ± 0.042 | 0.322 ± 0.035 | 0.214 ± 0.0082 | 0.0427 ± 0.0038 | 0.0287 ± 0.0015 | 0.934 ± 0.09 | 0.929 ± 0.1 | 0.889 ± 0.096 | 0.87 ± 0.11 | 0.198 ± 0.0064 | 0.132 ± 0.017 | 0.0837 ± 0.04 | 0.061 ± 0.0036
HS57T BREAST | 0.826 ± 0.044 | 0.849 ± 0.041 | 0.79 ± 0.011 | 0.505 ± 0.031 | 0.192 ± 0.007 | 0.149 ± 0.0066 | 0.0707 ± 0.0025 | 0.0653 ± 0.0081 | 0.919 ± 0.02 | 0.923 ± 0.056 | 0.729 ± 0.058 | 0.799 ± 0.1 | 0.287 ± 0.029 | 0.182 ± 0.013 | 0.0527 ± 0.0015 | 0.0473 ± 0.0047
HS578T BREAST | 0.811 ± 0.14 | 0.778 ± 0.18 | 0.729 ± 0.11 | 0.648 ± 0.091 | 0.464 ± 0.05 | 0.457 ± 0.054 | 0.228 ± 0.0098 | 0.212 ± 0.039 | 1.03 ± 0.14 | 1.06 ± 0.19 | 0.993 ± 0.19 | 1.06 ± 0.082 | 0.739 ± 0.18 | 0.809 ± 0.066 | 0.274 ± 0.067 | 0.154 ± 0.027
HSSYII SYNOVIAL | 0.187 ± 0.025 | 0.686 ± 0.035 | 0.213 ± 0.011 | 0.12 ± 0.0066 | 0.0273 ± 0.0023 | 0.0507 ± 0.0042 | 0.0363 ± 0.001 | 0.0383 ± 0.0038 | 0.876 ± 0.058 | 0.843 ± 0.014 | 0.199 ± 0.0066 | 0.0977 ± 0.011 | 0.0352 ± 0.004 | 0.027 ± 0.0035 | 0.017 ± 0.0013 | 0.0215 ± 0.0017
HU09 BONE | 0.84 ± 0.015 | 0.82 ± 0.06 | 0.311 ± 0.065 | 0.0673 ± 0.011 | 0.026 ± 0.0027 | 0.0207 ± 0.00058 | 0.0163 ± 0.00058 | 0.0203 ± 0.0011 | 0.942 ± 0.072 | 1.01 ± 0.13 | 0.925 ± 0.053 | 0.917 ± 0.11 | 0.5387 ± 0.004 | 0.374 ± 0.016 | 0.161 ± 0.0055 | 0.0983 ± 0.0055
JIMT1 BREAST | 0.894 ± 0.018 | 0.893 ± 0.058 | 0.8377 ± 0.0059 | 0.655 ± 0.048 | 0.433 ± 0.024 | 0.394 ± 0.034 | 0.066 ± 0.0031 | 0.0517 ± 0.0014 | 0.971 ± 0.033 | 0.992 ± 0.021 | 0.888 ± 0.033 | 0.543 ± 0.056 | 0.0545 ± 0.0027 | 0.0323 ± 0.0027 | 0.0275 ± 0.0013 | 0.0318 ± 0.0055
JURKAT HAEMATOPOIETIC AND LYMPHOID TISSUE | 0.928 ± 0.043 | 0.902 ± 0.025 | 0.282 ± 0.011 | 0.0237 ± 0.0015 | 0.0293 ± 0.00058 | 0.0247 ± 0.00058 | 0.0203 ± 0.00058 | 0.0253 ± 0.0011 | 1.02 ± 0.062 | 1.033 ± 0.0072 | 0.782 ± 0.015 | 0.445 ± 0.014 | 0.0363 ± 0.00058 | 0.029 | 0.027 | 0.0317 ± 0.00058
KPD BONE | 0.886 ± 0.02 | 0.856 ± 0.041 | 0.509 ± 0.0098 | 0.327 ± 0.004 | 0.29 ± 0.015 | 0.15 ± 0.016 | 0.041 ± 0.0027 | 0.0363 ± 0.0045 | 0.966 ± 0.037 | 0.995 ± 0.068 | 0.519 ± 0.033 | 0.266 ± 0.046 | 0.0473 ± 0.0081 | 0.0347 ± 0.004 | 0.0237 ± 0.0025 | 0.0257 ± 0.0021
LM7 BONE | 0.73 ± 0.032 | 0.691 ± 0.08 | 0.422 ± 0.0056 | 0.232 ± 0.015 | 0.145 ± 0.018 | 0.0813 ± 0.0095 | 0.024 ± 0.0035 | 0.0243 ± 0.00058 | 0.943 ± 0.029 | 0.889 ± 0.053 | 0.433 ± 0.018 | 0.201 ± 0.019 | 0.039 ± 0.0056 | 0.0237 ± 0.00058 | 0.0197 ± 0.00058 | 0.025 ± 0.0017
LNCAP PROSTATE | 0.98 ± 0.035 | 0.802 ± 0.047 | 0.254 ± 0.017 | 0.164 ± 0.01 | 0.0637 ± 0.0064 | 0.0507 ± 0.0067 | 0.023 ± 0.0035 | 0.0203 ± 0.0011 | 0.92 ± 0.085 | 0.943 ± 0.033 | 0.87 ± 0.097 | 0.978 ± 0.1 | 0.227 ± 0.032 | 0.069 ± 0.0044 | 0.0267 ± 0.0055 | 0.0267 ± 0.0015
MCF7 BREAST | 0.731 ± 0.032 | 0.824 ± 0.025 | 0.696 ± 0.079 | 0.556 ± 0.01 | 0.39 ± 0.0082 | 0.354 ± 0.011 | 0.0642 ± 0.0025 | 0.0648 ± 0.0052 | 0.853 ± 0.076 | 0.883 ± 0.018 | 0.679 ± 0.063 | 0.368 ± 0.033 | 0.0596 ± 0.0041 | 0.043 ± 0.003 | 0.0207 ± 0.00033 | 0.0226 ± 0.0014
MDAMB134 BREAST | 0.662 ± 0.057 | 0.625 ± 0.048 | 0.66 ± 0.016 | 0.587 ± 0.031 | 0.602 ± 0.0085 | 0.594 ± 0.0057 | 0.587 ± 0.13 | 0.518 ± 0.044 | 0.783 ± 0.027 | 0.855 ± 0.052 | 0.759 ± 0.037 | 0.5665 ± 0.005 | 0.775 ± 0.051 | 0.634 ± 0.13 | 0.567 ± 0.0014 | 0.435 ± 0.064
MDAMB361 BREAST | 0.664 ± 0.069 | 0.737 ± 0.045 | 0.747 ± 0.096 | 0.723 ± 0.066 | 0.774 ± 0.071 | 0.702 ± 0.032 | 0.397 ± 0.038 | 0.38 ± 0.041 | 0.869 ± 0.069 | 0.826 ± 0.073 | 0.919 ± 0.23 | 0.549 ± 0.041 | 0.224 ± 0.0076 | 0.191 ± 0.022 | 0.103 ± 0.0066 | 0.0887 ± 0.0074
